Measurements published in article PMC2397535 (Breast Cancer Research : BCR, 2008).

Legend:
MDA-MB-468 = assay: antiproliferative effect (GI50), breast cancer cell line; assay type: cell-based; conditions: Homo sapiens
BT20 = assay: as above; assay type: cell-based; conditions: Homo sapiens, BT-20
MCF-7 = assay: as above; assay type: cell-based; conditions: Homo sapiens, MCF7
MDA-MB-231 = assay: as above; assay type: cell-based; conditions: Homo sapiens
BT-474 = assay: as above; assay type: cell-based; conditions: Homo sapiens
SkBr3 = assay: as above; assay type: cell-based; conditions: Homo sapiens, SK-BR-3
HSP90-p23 complex = HSP90-p23 complex (Homo sapiens, UniProt P07900)
Description: For immunoprecipitation, 300 μg of total protein was immunoprecipitated with 5 μg of rat anti-HSP90α monoclonal antibody (SPA-840, clone 9D2, isotype: IgG2a; Assay Designs, Inc.). Proteins were resolved by 12% SDS-PAGE and transferred to PVDF membranes.

MDA-MB-157 = assay: antiproliferative effect (GI50), breast cancer cell line; assay type: cell-based; conditions: Homo sapiens

In the case of C=CCNC1=C2C[C@@H](C)C[C@H](OC)[C@H](O)[C@@H](C)/C=C(\C)[C@H](OC(N)=O)[C@@H](OC)/C=C\C=C(/C)C(=O)NC(=CC1=O)C2=O [17-AAG, 17-allylamino-17-demethoxygeldanamycin, reference compound], the GI50 (MDA-MB-468) is reported as 1.66 µM, the GI50 (BT20) is reported as 0.0189 ± 0.0048 µM and the GI50 (MCF-7) is reported as 0.069 ± 0.0183 µM. For the same molecule, the GI50 (MDA-MB-231) was 2.06 µM, the GI50 (BT-474) was 0.0174 ± 0.0052 µM and the GI50 (SkBr3) was 0.0119 ± 0.008 µM. For the same molecule, the “amount of HSP90α co-immunoprecipitating with p23” value (HSP90-p23 complex) was “concentration-dependent decrease”, the “time to complete HSP90-p23 dissociation (full inhibition)” value (HSP90-p23 complex) was no more than 15 min and the GI50 (MDA-MB-157) was 0.0295 ± 0.0208 µM.
